Laboratory results published in patent US20190315878A1, “BISPECIFIC ANTIBODIES THAT MODULATE TLR-4 SIGNALING AND USES THEREOF” (ARGOS THERAPEUTICS INC., priority 2016, published 2019).

Legend:
stimulated PBMC cultures [1] = test: PGE2 secretion from stimulated PBMC cultures (competitive ELISA); assay type: cell-based, human; conditions: COX-2 inhibitor in combination with sCD83; FIG. 9E
Protocol: (§1) To evaluate cytokine secretion from stimulated PBMC cultures in response to sCD83 treatment, the supernatant was collected after culture and analyzed for human cytokines using the Cytometric Bead Array kit (BD® Biosciences) according to the manufacturer's instructions. Data were analyzed using the FCAP Array software (BD® Biosciences). PGE2 concentrations were measured using a competitive ELISA kit (Thermofisher).

stimulated PBMC cultures [2] = test: Cytokine secretion from stimulated PBMC cultures (Cytometric Bead Array); assay type: cell-based, human; conditions: COX-2 inhibitor in combination with sCD83
Protocol: as §1

MD-2 binding to sCD83-m3 = biological target: T1, MD-2 binding to sCD83-m3 (Homo sapiens, UniProt Q9Y6Y9); test: LPS derivatives pre-incubated with MD-2; loss of MD-2 binding to sCD83 (cell free ELISA); conditions: for % inhibition of MD-2 binding to sCD83-m3: LPS derivatives pre-incubated with MD-2, cell free ELISA; for blocking of MD-2 binding to sCD83: FIG. 6B
T1 sequence (Q9Y6Y9 17-160 limits assumed): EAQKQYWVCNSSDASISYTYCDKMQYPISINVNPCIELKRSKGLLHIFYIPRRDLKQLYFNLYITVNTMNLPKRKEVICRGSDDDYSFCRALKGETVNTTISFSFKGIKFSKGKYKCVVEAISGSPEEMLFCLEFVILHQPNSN
Protocol: sCD83 was prepared at 1 μg/mL in Coating Buffer (BD® Bioscience OptEIA ELISA Reagent Set B) and incubated overnight at 4° C. Plates were washed with wash buffer (PBS with 0.05% Tween 20, BD® Bioscience OptEIA Reagent Set B) three times using an ELx405 auto plate washer and then 300 μl of blocking buffer (1% BSA in PBS) was added to each well. The plates were then incubated for 2 hours at 37° C. to block and then washed three times with wash buffer. The protein of interest (MD-2, CD14, MD-2+LPS, or LPS) (R&D Systems®, Inc., Sigma) was serially diluted in seven tubes, and then 100 μl of the diluted protein samples were transferred to the appropriate wells on the capture plate. The plates were then incubated for 1 hour at room temperature in the dark. Plates were washed and goat anti-human biotinylated CD83 detection antibody (R&D Systems®, Inc.) was added at 100 μl/well and incubated for 2 hours at room temperature in the dark. The plates were then washed, and streptavidin-HRP was prepared at a 1:1000 dilution and added at 100 μl/well. The plates were incubated for 1 hour at room temperature in the dark and then washed, and development solution was prepared by combining equal parts of Substrate A plus Substrate B (BD® OptEIA ELISA Reagent Set B) and added to the plates (100 μl/well). The plates were allowed to develop for 1-10 minutes and the reaction was stopped by adding 50 μl/well of stop solution (BD® OptEIA reagents set B). The plates were analyzed on a ELx800 universal microplate reader at 450 nm.
In order to map the sCD83 binding site on MD-2, recombinant MD-2 protein was pre-incubated with each of several LPS derivatives prior to being added to plates coated with sCD83 protein. […] If MD-2 bound to LPS or the LPS derivatives blocked sCD83 binding, the interaction of sCD83 with MD-2 may mimic antagonist regulation of TLR signaling.

[3] = system: sCD83-m3 binding on monocytes; test: Antibody blocking of sCD83-m3 binding to PBMCs / monocytes (Example 2); set-up: species or system human; conditions: post-thaw PBMCs
Protocol: For antibody blocking experiments, cells were pre-incubated with the indicated purified antibodies to CD14 (clone M5E2, BD® Biosciences; clone 61D3, eBioscience® Corp.; clone My4, Beckman Coulter®, Inc.), to CD44s (clone 515, BD® Biosciences; clone 1M7, eBioscience® Corp.; and clone 156-3c11 and clone 5F12, Invitrogen® Corp.), to CD44v6 (clone VFF-7, eBiosciences® Corp.) to TLR4/MD-2 (clone MTS510, eBioscience® Corp.) or to MD-2 (clone 984, eBioscience® Corp.; clone 288307, R&D Systems®, Inc.) for 15 minutes at room temperature without washing prior to addition of sCD83 protein. Isotype control IgG1 and IgG2a antibodies were purchased from eBioscience® Corp.. Cells were washed with 2 mL BD® Stain Buffer (FBS) and incubated with 5 μl of Goat anti-human CD83 biotin (R&D Systems®, Inc.) for 15 minutes at room temperature. Cells were washed twice with 2 ml BD® Stain Buffer (FBS) and incubated with 20 μl of Streptavidin APC (BD® Biosciences) for 15 minutes at room temperature. Background staining was determined without the addition of sCD83 protein. […]

IRAK-1 [4] = test: IRAK assay of CD83 activity in macrophage cultures (Western blot); assay type: cell-based, human
Protocol: The IRAK Assay measures the rapid down-regulation of IRAK-1 protein by sCD83 in macrophage cultures. PBMCs were cultured in the presence of GM-CSF for 5 days. Macrophages were harvested and cultured overnight in media containing GM-CSF, then incubated in the presence or absence of a test antibody in 1 mL cultures for various times. Cell lysates were then used to prepare a Western blot and evaluated for IRAK expression as described in more detail in working Example 3.
One vial (2×10^8 total cells) of 2124557 PBMCs were thawed and cultured in T-150 flask with 1000 U/mL GM-CSF for 5 days. The macrophages were harvested, counted and resuspended at 1×10^6 cells/mL in R-10 media with GM-CSF and then cultured overnight. The cells were incubated with various preparations of sCD83 polypeptides, +/−25 μg/mL in 1 mL cultures for various times and then lysed in ice cold RIPA buffer with protease/phosphatase inhibitor cocktail. Bradford (BCA) protein assay was performed to determine total protein concentration.
4-5 μg of each lysate sample was run on a lane of a Criterion 10-20% Tris-HCL gel at 200V for 50 minutes. The gel was transferred to PVDF membrane at 100V for 75 minutes. […]

IRAK-1 [5] = test: Western blotting of GM-CSF-cultured monocytes; assay type: cell-based, human; conditions: 60 minutes; 25 μg/ml sCD83 or 100 ng/ml LPS; FIG. 7A
Protocol: Monocytes were isolated from PBMC using negative selection (Stemcell) and cultured in R-10 medium ((10% fetal bovine serum (FBS; Atlanta Biologicals), Roswell Park Memorial Institute-1640 (supplemented with 10 mM 4-2-hydroxyethyl-1-piperazineethanesulfonic acid pH 7.4, 1 mM sodium pyruvate, 0.1 mM nonessential amino acids, 2 mM sodium glutamate, and […] 2-mercaptoethanol; Invitrogen® Corp.)) with GM-CSF overnight. sCD83 or LPS was then added for the indicated time points. Cells were lysed in ice cold RIPA buffer in the presence of a protease/phosphatase inhibitor cocktail ([…]). Bradford (BCA) protein assay (Thermo Scientific) was performed to determine total protein concentrations. 4-5 μg of each lysate sample was run on each lane of a Criterion 10-20% Tris-HCL gel at 200V for 50 minutes. The gel was transferred to PVDF membrane at 100V for 75 minutes. […]
The inventors studied the expression of IRAK proteins in the presence of sCD83. […] IRAK-1 protein was detected in untreated cultures and LPS-treated cultures, in contrast to cultures treated with sCD83 (FIG. 7A). Furthermore, no change in IRAK-2, IRAK-4, and IRAK-M protein levels was detected when cells were treated with sCD83 for 60 minutes.

## CS(=O)(=O)Nc1ccc([N+](=O)[O-])cc1OC1CCCCC1 [NS-398]
Stimulated PBMC cultures [1]
  PGE2 production: blocked PGE2 production
Stimulated PBMC cultures [2]; FIG. 9C
  IL-6 secretion: marginal effect
Stimulated PBMC cultures [2]; FIG. 9D
  sCD83 induced IL-10 secretion: suppressed sCD83 inducted IL-10 secretion

## KDO-lipid A [KDO-Lipid A variant]
MD-2 binding to sCD83-m3
  % inhibition of MD-2 binding to sCD83-m3: 93%
MD-2 binding to sCD83-m3; added first to sCD83 bound plates and washed prior to addition of MD-2 protein
  blocking of MD-2 binding to sCD83: no longer blocked MD-2 binding to sCD83
MD-2 binding to sCD83-m3; pre-incubated with MD-2
  blocking of MD-2 binding to sCD83: prevented MD-2 binding to sCD83
MD-2 binding to sCD83-m3; pre-incubated with MD-2, listed as KDO
  blocking of MD-2 binding to sCD83: blocks sCD83 binding to MD-2

## diphosphoryl-Lipid A [Lipid A Diphos]
MD-2 binding to sCD83-m3
  % inhibition of MD-2 binding to sCD83-m3: 19%

## lipopolysaccharide [LPS]
[3]
  % inhibition (relative to control): 5%
IRAK-1 [4]
  down-regulation of IRAK-1 protein in macrophage cultures: does not have this effect
IRAK-1 [4]; macrophages, 25 μg/mL
  IRAK assay result: negative result
MD-2 binding to sCD83-m3
  % inhibition of MD-2 binding to sCD83-m3: 25%
IRAK-1 [5]
  IRAK-1 protein expression: detected

## monophosphoryl-Lipid A [Lipid A Monophos]
MD-2 binding to sCD83-m3
  % inhibition of MD-2 binding to sCD83-m3: 22%
